Drawing on PubChem BioAssay (NCI), this text covers TGI and GI50 for 23 molecules.

Each structure is given as a SMILES string. Where “and” joins values, the source holds several entries; their conditions need not be identical. Identical values can stand only once.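 Grown in 96-well plates, cells were treated for 48 hours with each compound at five concentrations. Insufficient inhibition: endpoint recorded as highest concentration tested. Abbreviation: GI50, concentration required for 50% inhibition of growth. At the TGI there is no net growth.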 Where only a bound is given, the exact number is not on record here.

Test systems include A498 renal; HCC-2998 colon; IGROV1 ovarian; SF-295 CNS; SK-MEL-28 melanoma; SNB-75 CNS; LOX IMVI melanoma; RPMI-8226 leukemia.
Assay in all cases: inhibition of tumour cell growth, NCI panel, 48 h

For the molecule `CCCCCCCCCC1C(C)c2c([nH]c3ccccc23)C2C(=O)N(c3ccccc3)C(=O)C21` (centres undefined), the TGI with A498 renal was 33.8 µM; in the assay with HCC-2998 colon it was 25.7 µM; in the assay on IGROV1 ovarian it was 35.3 µM; with SF-295 CNS it was 28.9 µM; in the assay on SK-MEL-28 melanoma, 4.7 µM; in the assay on SNB-75 CNS, 26.9 µM.
As to `O=C(O)CCCCCO`, the TGI in the assay with A498 renal, in the assay on HCC-2998 colon, in the assay with IGROV1 ovarian, in the assay on LOX IMVI melanoma, in the assay on RPMI-8226 leukemia and in the assay with SF-295 CNS was more than 100 µM in each case. In addition, the TGI in the assay on SK-MEL-28 melanoma and in the assay on SNB-75 CNS was more than 100 µM throughout.
As to `Nc1nc(N)c(N=O)c(Nc2ccc(I)cc2)n1`, the TGI in the assay on HCC-2998 colon is 88.2 µM; in the assay with IGROV1 ovarian it was 25.8 µM; in the assay with LOX IMVI melanoma, 51.6 µM; in the assay with RPMI-8226 leukemia it was more than 100 µM; in the assay with SF-295 CNS, 67.9 µM; in the assay with SK-MEL-28 melanoma, 52.3 µM.
For `COc1cc(C(=O)C/C(CCC(=O)Nc2ccc(Cl)cc2Cl)=N/NC(=O)C(N)=O)ccc1O`, the TGI in the assay with A498 renal, with HCC-2998 colon, in the assay on IGROV1 ovarian, in the assay on RPMI-8226 leukemia, in the assay on SF-295 CNS and in the assay on SK-MEL-28 melanoma was more than 100 µM each time. Moreover, the TGI in the assay on SNB-75 CNS was 43.7 µM.
`Cc1c(C(=O)/C=C/c2ccccc2Cl)[n+](=O)c2ccccc2n1[O-]`: the TGI came to 26.9 µM with A498 renal; 31.6 µM in the assay with IGROV1 ovarian; 36.1 µM in the assay with RPMI-8226 leukemia; 28 µM in the assay with SF-295 CNS; 31.6 µM in the assay on SK-MEL-28 melanoma; 30.5 µM with SNB-75 CNS.
On to `O=C(CC(=O)Nc1ccccc1O)Nc1ccccc1O`, for which the TGI in the assay with A498 renal was more than 100 µM; in the assay with HCC-2998 colon, more than 100 µM; in the assay with IGROV1 ovarian it was more than 100 µM; in the assay with RPMI-8226 leukemia, 44.2 µM; with SF-295 CNS, more than 100 µM; with SK-MEL-28 melanoma, 27.4 µM. In the assay on SNB-75 CNS, the TGI was 37.2 µM.
As to `CCOC(=O)C(Cc1ccccc1)NC(=O)OC(C)(C)C` (centres undefined), the TGI in the assay on A498 renal, with HCC-2998 colon, in the assay on IGROV1 ovarian, in the assay with LOX IMVI melanoma, with SF-295 CNS and in the assay with SK-MEL-28 melanoma was more than 100 µM in each case. This molecule also yielded a TGI in the assay with SNB-75 CNS of more than 100 µM.
With `CC1=C(C(=O)CC(=O)C(=O)Nc2ccccc2)Sc2ccccc2N1`, the TGI in the assay on A498 renal, in the assay on IGROV1 ovarian, in the assay with LOX IMVI melanoma, in the assay on RPMI-8226 leukemia, in the assay with SF-295 CNS and in the assay on SK-MEL-28 melanoma was more than 100 µM in each case.
As to `Nc1ncnc2c(C3OC(CO)C(O)C3O)scc12` (centres undefined), the GI50 in the assay with A498 renal was 0.0518 µM; in the assay on IGROV1 ovarian, 0.0179 µM; in the assay with LOX IMVI melanoma, 0.0233 µM; in the assay on SF-295 CNS, 0.591 µM; in the assay on SK-MEL-28 melanoma it was 1.2 µM. Besides, the TGI with A498 renal is 0.324 µM and 2.03 µM; with HCC-2998 colon, 0.121 µM and 0.277 µM; in the assay with IGROV1 ovarian, 3.3 µM; with LOX IMVI melanoma, 1.49 µM and 2 µM; in the assay on SF-295 CNS it was 2.45 µM and 3.66 µM; with SK-MEL-28 melanoma, 2.64 µM and 7.04 µM. Further, the TGI in the assay with SNB-75 CNS was determined as 5.5 µM.
As for `CCOC(=O)N1N=NC2C3OC(C[C@@]3(C#N)OC(C)=O)[C@H]21` (some centres undefined), the TGI in the assay on HCC-2998 colon, in the assay with IGROV1 ovarian, with LOX IMVI melanoma, in the assay on RPMI-8226 leukemia, in the assay with SF-295 CNS and in the assay with SK-MEL-28 melanoma was more than 100 µM in each case. For the same molecule, the TGI in the assay with SNB-75 CNS was more than 100 µM.
For `COc1cc2ccnc(-c3c4ccccc4c(N)c4c(OC)c(OC)ccc34)c2cc1OC`, the TGI came to 8.89 µM in the assay on A498 renal; 8.86 µM with HCC-2998 colon; 14.5 µM in the assay on IGROV1 ovarian; 3.08 µM with LOX IMVI melanoma; 13.9 µM with SF-295 CNS; 6.92 µM in the assay with SK-MEL-28 melanoma.
Take `CCC[CH2][Ge]([CH2]CCC)([CH2]CCC)[O]C(=O)C(OC)c1ccccc1` (centres undefined): the GI50 with A498 renal is 46.8 µM; in the assay on HCC-2998 colon it was 23.2 µM; in the assay with IGROV1 ovarian, more than 74.7 µM; in the assay on LOX IMVI melanoma it was 14.3 µM; with RPMI-8226 leukemia, 0.255 µM; in the assay with SF-295 CNS, 18.3 µM. In addition, the GI50 is 52.3 µM with SK-MEL-28 melanoma and 41.1 µM in the assay with SNB-75 CNS. Moreover, the TGI with A498 renal was more than 100 µM; with HCC-2998 colon, 59 µM; in the assay with IGROV1 ovarian, more than 100 µM; in the assay with LOX IMVI melanoma it was 35.1 µM; in the assay on RPMI-8226 leukemia, 14.6 µM; in the assay with SF-295 CNS it was more than 100 µM. The TGI in the assay with SK-MEL-28 melanoma and in the assay on SNB-75 CNS was more than 100 µM throughout.
As to `COc1c(NC(=O)CC(C)=O)[c]([Hg][O]C(C)=O)c(OC)c(Cl)[c]1[Hg][O]C(C)=O`, the GI50 is 18.8 µM in the assay with HCC-2998 colon; 11.7 µM in the assay on IGROV1 ovarian; 17.5 µM in the assay with RPMI-8226 leukemia; 17 µM in the assay with SF-295 CNS; 11.3 µM in the assay with SK-MEL-28 melanoma; 9.69 µM with SNB-75 CNS. The TGI amounted to 34.3 µM in the assay with HCC-2998 colon; 28.3 µM with IGROV1 ovarian; 63.5 µM with RPMI-8226 leukemia; 31.8 µM with SF-295 CNS; 23.9 µM with SK-MEL-28 melanoma; 29.5 µM in the assay on SNB-75 CNS.
Turning to `NC(=S)NNC(=O)CCC(=O)Nc1ccc(Cl)cc1Cl`, the TGI with A498 renal, in the assay with HCC-2998 colon, in the assay with IGROV1 ovarian, with LOX IMVI melanoma, in the assay with RPMI-8226 leukemia and in the assay on SF-295 CNS was more than 100 µM in each case. For the same molecule, the TGI in the assay with SK-MEL-28 melanoma and in the assay with SNB-75 CNS was more than 100 µM each time.
Regarding `NCCCC1NC(=O)/C(=C(O)/C=C/C2CCC[C@@H]2CC2SCCS2)C1=O` (some centres undefined), the TGI in the assay on A498 renal, with HCC-2998 colon, in the assay with IGROV1 ovarian, in the assay with LOX IMVI melanoma, in the assay on RPMI-8226 leukemia and in the assay on SF-295 CNS was more than 100 µM each time. Besides, the TGI in the assay with SK-MEL-28 melanoma and in the assay on SNB-75 CNS was more than 100 µM throughout.
For the molecule `CC(=O)OCC1OC(n2c(=O)n(-c3ccccc3)c(=O)c3cc(Br)cc(Br)c32)C(OC(C)=O)C(OC(C)=O)C1OC(C)=O` (centres undefined), the TGI in the assay on A498 renal, with HCC-2998 colon, in the assay with IGROV1 ovarian, with LOX IMVI melanoma, in the assay with RPMI-8226 leukemia and with SF-295 CNS was more than 100 µM throughout. Besides, the TGI in the assay on SK-MEL-28 melanoma and with SNB-75 CNS was more than 100 µM in each case.
For the molecule `CCOC(=O)[C@H]1Nc2ccc(Cl)cc2[C@H]2OCC[C@@H]12`, the TGI in the assay on A498 renal, in the assay on HCC-2998 colon, in the assay with IGROV1 ovarian, in the assay on LOX IMVI melanoma, in the assay with SF-295 CNS and with SK-MEL-28 melanoma was more than 100 µM throughout. In the assay on SNB-75 CNS, the TGI was more than 100 µM.
As to `CCC[CH2][Sn]([CH2]CCC)([O]C(=O)c1cc(OC)c(OC)cc1OC)[O]C(=O)c1cc(OC)c(OC)cc1OC`, the GI50 with A498 renal was 1.48 µM; in the assay with IGROV1 ovarian, 1.43 µM; with LOX IMVI melanoma, 1.04 µM; in the assay with RPMI-8226 leukemia it was 0.499 µM; in the assay on SF-295 CNS, 2.28 µM; with SK-MEL-28 melanoma it was 0.971 µM. Moreover, the GI50 in the assay on SNB-75 CNS was 0.402 µM. Besides, the TGI in the assay with A498 renal amounted to 3.21 µM; in the assay on IGROV1 ovarian it was 2.96 µM; in the assay with LOX IMVI melanoma, 3.34 µM; in the assay on RPMI-8226 leukemia it was 2.96 µM; in the assay on SF-295 CNS it was 5.88 µM; in the assay with SK-MEL-28 melanoma, 2.23 µM. The molecule further displayed a TGI in the assay with SNB-75 CNS of 1.53 µM.
Turning to `Cc1ccc(NC(=O)CC/C(CC(=O)c2ccc(F)cc2)=N\NC(=O)C(=O)NN)cc1C`, the TGI in the assay with A498 renal, in the assay with HCC-2998 colon, in the assay on IGROV1 ovarian, in the assay with LOX IMVI melanoma, with SF-295 CNS and in the assay on SK-MEL-28 melanoma was more than 100 µM throughout. The TGI with SNB-75 CNS is more than 100 µM.
On to `Nc1ccc2c(c1)CC1c3ccccc3C(C2)c2ccccc21`, for which the TGI in the assay on A498 renal, with HCC-2998 colon, with IGROV1 ovarian, in the assay with LOX IMVI melanoma, in the assay with RPMI-8226 leukemia and in the assay with SF-295 CNS was more than 100 µM each time. The same molecule showed a TGI in the assay with SNB-75 CNS of more than 100 µM.
For `CCC1(C(=O)OC)CCc2c(OC)ccc(OC)c2C1=O` (centres undefined), the TGI with A498 renal, in the assay on HCC-2998 colon, in the assay with IGROV1 ovarian, in the assay on LOX IMVI melanoma, in the assay with RPMI-8226 leukemia and in the assay on SF-295 CNS was more than 100 µM throughout. Further, in the assay with SK-MEL-28 melanoma, the TGI was more than 100 µM.
In the case of `COc1cc2c(c(OC)c1OC)-c1ccc(SC)c(=O)cc1[C@@H](NCc1cccc(C#N)c1)CC2`, the TGI was 0.0732 µM in the assay with A498 renal; 0.0515 µM with HCC-2998 colon; more than 75 µM in the assay on IGROV1 ovarian; 16.6 µM in the assay on LOX IMVI melanoma; 40.7 µM in the assay with RPMI-8226 leukemia; 0.0568 µM with SNB-75 CNS. For the same molecule, the GI50 in the assay on IGROV1 ovarian, in the assay on LOX IMVI melanoma, in the assay on RPMI-8226 leukemia and with SF-295 CNS was less than 0.0075 µM throughout.
As to `CN(C)CC/C(=N\Nc1ccc(Cl)c(Cl)c1)c1ccccc1`, the TGI was 9.13 µM in the assay on A498 renal; 5.68 µM in the assay on IGROV1 ovarian; 3.06 µM with LOX IMVI melanoma; 6.73 µM with RPMI-8226 leukemia; 3.99 µM in the assay on SF-295 CNS; 6.43 µM in the assay on SK-MEL-28 melanoma. The molecule further had a TGI in the assay with SNB-75 CNS of 7.08 µM.
